Laboratory results as given in patent US6528517B1, “Synthesis of quinobenzoxazine analogues with topoisomerase II and quadruplex interactions for use as antineoplastic agents” (Board of Regents, The University of Texas System, priority 1998, dated 2003).

Experiments:
[1] = target: T1, human topoisomerase II (Homo sapiens, UniProt P11388); assay: Decatenation assay (catenated to decatenated KDNA); format: biochemical; details: drug concentration that inhibits 50% of conversion of catenated to decatenated KDNA; read-out: topoisomerase II inhibition IC50
T1 construct: purchased TopoGEN, Inc
T1 sequence (P11388 whole entry): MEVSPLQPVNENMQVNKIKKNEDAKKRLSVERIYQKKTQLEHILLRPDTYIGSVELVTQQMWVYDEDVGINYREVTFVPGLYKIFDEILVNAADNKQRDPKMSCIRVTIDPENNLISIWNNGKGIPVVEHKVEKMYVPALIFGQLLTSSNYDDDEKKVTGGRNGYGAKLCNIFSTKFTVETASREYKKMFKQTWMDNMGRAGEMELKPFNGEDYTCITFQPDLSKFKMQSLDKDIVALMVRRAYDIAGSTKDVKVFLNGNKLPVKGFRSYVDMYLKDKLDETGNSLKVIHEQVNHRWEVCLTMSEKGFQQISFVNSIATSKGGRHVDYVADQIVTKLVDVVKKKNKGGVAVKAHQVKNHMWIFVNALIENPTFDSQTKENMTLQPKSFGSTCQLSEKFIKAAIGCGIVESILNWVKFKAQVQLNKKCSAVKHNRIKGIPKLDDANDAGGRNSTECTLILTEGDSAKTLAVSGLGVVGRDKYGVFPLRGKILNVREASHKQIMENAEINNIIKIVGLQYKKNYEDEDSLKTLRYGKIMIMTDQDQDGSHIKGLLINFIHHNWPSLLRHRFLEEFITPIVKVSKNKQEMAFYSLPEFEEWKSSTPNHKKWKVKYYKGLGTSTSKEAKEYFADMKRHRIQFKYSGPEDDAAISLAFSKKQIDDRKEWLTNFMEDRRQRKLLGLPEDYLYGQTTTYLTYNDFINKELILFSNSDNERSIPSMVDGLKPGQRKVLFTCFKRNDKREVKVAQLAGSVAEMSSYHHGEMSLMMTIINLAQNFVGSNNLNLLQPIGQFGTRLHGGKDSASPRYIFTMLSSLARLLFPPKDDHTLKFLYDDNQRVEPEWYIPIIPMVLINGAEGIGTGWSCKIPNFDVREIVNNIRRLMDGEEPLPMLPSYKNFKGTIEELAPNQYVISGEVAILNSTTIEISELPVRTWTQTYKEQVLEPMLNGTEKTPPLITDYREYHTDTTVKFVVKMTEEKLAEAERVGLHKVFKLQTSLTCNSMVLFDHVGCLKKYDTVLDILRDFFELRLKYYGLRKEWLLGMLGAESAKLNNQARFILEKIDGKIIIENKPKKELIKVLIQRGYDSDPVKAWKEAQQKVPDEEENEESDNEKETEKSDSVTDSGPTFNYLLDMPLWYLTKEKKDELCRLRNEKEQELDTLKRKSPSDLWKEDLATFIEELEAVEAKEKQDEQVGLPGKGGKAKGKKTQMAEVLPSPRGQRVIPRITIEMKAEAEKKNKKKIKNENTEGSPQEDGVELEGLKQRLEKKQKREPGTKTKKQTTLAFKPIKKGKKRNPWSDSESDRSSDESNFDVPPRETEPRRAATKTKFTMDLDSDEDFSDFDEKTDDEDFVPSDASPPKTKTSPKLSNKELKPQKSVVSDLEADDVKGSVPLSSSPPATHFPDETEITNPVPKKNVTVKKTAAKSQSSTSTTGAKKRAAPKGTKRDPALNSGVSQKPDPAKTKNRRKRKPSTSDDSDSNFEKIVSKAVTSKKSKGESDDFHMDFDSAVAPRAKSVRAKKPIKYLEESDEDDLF
Experimental: Kinetoplast DNA (KDNA), human topoisomerase II (170 KDa form), and DNA Unwinding Kit including supercoiled pHOT1 DNA, relaxed DNA marker, buffers, and human topoisomerase I were purchased from TopoGEN, Inc. Agarose was purchased from Fisher. Quinobenzoxazine A-62176 (S-enantiomer) was provided by Abbott Laboratories or prepared by published procedure (Chu and Maleczka, Jr., 1987).
0.25 μg of KDNA was incubated with various concentrations of the quinobenzoxazines in a 20-μl reaction mixture containing 50 mM Tris-HCl (pH 8), 120 mM KCl, 10 mM MgCl2, and 0.5 mM each of ATP, dithiothreitol, and […] BSA for 10 min. Two units of human topoisomerase II (170 KDa form) were added to the mixture, which was then incubated at 37° C. for 30 min. The reaction was terminated with 0.1 volume of stop buffer (5% sarkosyl, 0.025% bromophenol blue, and 50% glycerol). The decatenation products were analyzed on 1% agarose gels run with 0.5 μg/ml ethidium bromide. The gels were scanned by FluoroImager and analyzed by ImageQuaNT software (Molecular Dynamics).

[2] = tested on: H226 non-small-cell lung; assay: Cancer cell growth inhibition assay (MTT); format: cell-based, human; details: Homo sapiens, NCI-H226
Experimental: Exponentially growing cells in 0.1 ml medium were seeded on Day 0 in 96-well microtiter plates. On Day 1, 0.1-ml aliquots of medium containing graded concentrations test agent were added in duplicate to the cell plates. After incubation at 37° C. in a humidified incubator, the plates were centrifuged briefly (1-2 min at 1000 rpm), and 100 μl of the growth medium was removed. Cell cultures were incubated with 50 μl of 3-(4,5-dimethylthiazyl-2-yl)-2,5-diphenyltetrazolium bromide MTT, 1 mg/ml in Dubecco's PBS for 4 h at 37° C. The resulting purple formazan precipitate was solubilized with 200 μl of 0.4 N HCl in isopropyl alcohol. Absorbance was quantitated using a Bio-Rad Model 3550 microplate reader at a test wavelength of 570 nm and a reference wavelength of 630 nm. Absorbance values were transferred to a 486 personal computer, and the IC50 values were determined using the computer program EZ-ED50 (Chen et al., 1993).

[3] = target: T2, Drosophila topo II (Drosophila melanogaster, UniProt P15348); assay: Topo II cleavage reaction; format: biochemical; details: up to 10 μM
T2 construct: purchased Amersham
T2 sequence (P15348 1-1447): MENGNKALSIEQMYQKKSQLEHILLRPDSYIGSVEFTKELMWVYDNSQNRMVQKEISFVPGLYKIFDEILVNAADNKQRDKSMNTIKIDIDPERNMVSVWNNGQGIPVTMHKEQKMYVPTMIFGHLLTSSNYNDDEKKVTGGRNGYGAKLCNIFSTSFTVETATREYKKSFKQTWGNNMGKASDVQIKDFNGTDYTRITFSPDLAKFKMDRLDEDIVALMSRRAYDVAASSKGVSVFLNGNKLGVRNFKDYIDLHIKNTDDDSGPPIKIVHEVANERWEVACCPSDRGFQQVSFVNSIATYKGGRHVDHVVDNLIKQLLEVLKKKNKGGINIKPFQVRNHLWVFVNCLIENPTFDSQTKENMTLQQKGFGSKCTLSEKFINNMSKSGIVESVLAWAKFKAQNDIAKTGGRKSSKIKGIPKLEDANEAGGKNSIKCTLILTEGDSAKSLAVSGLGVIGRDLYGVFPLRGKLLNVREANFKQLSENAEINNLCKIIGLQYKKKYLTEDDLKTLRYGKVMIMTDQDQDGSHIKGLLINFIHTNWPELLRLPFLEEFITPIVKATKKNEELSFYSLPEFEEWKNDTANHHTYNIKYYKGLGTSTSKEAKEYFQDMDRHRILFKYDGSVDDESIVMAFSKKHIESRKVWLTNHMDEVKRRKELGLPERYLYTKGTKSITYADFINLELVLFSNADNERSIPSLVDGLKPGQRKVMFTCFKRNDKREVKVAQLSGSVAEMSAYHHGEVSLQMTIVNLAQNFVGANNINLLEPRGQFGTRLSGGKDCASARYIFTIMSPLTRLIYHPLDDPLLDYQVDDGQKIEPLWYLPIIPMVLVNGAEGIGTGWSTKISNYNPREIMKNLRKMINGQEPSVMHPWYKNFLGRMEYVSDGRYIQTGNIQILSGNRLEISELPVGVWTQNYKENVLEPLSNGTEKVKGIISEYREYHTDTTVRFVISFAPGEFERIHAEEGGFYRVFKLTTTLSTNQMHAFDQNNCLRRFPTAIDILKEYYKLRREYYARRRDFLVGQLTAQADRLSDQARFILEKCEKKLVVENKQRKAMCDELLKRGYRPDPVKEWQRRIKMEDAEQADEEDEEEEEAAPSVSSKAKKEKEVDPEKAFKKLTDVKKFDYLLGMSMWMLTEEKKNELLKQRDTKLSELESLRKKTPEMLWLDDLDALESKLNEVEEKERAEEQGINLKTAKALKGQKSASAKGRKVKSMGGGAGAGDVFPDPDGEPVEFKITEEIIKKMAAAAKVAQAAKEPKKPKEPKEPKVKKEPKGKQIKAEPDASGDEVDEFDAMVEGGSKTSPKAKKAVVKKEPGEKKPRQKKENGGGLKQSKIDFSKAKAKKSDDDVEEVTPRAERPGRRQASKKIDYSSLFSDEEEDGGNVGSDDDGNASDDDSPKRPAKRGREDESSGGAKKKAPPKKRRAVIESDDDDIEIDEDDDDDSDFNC
Experimental: FIGS. 5, A-B. Effect of A-62176 (I in FIG. 2) on DNA cleavage by topo II in the presence of ATP. (A) Autoradiogram of a 12% denaturing polyacrylamide gel showing topo II-mediated cleavage pattern in the presence of A-62176. The cleavage reaction was done in a reaction buffer containing 10 mM imidazole-HCl (pH 6.0), 10 mM MgCl2, 50 mM KCl, and 1 mM ATP, as described in the Materials and Methods section. Lanes 1-7 contain 20 units of Drosophila topo II. Lane 1 contains no drug. Lanes 2-7 contain 0.2, 0.5, 1, 2, 5 and 10 μM of A-62176, respectively. (B) Topo II cleavage products indicated by arrows in (A) were quantitated using a PhosphorImager and analyzed using ImageQuanNT software (Molecular Dynamics). The intensity of the topo II-mediated cleavage was determined from the volume of the bands [indicated by arrows in (A)] normalized by the total radioactivity in each lane.
5′^32P-labeled DNA was incubated with Drosophila topo II in 20 μl of a reaction buffer [10 mM imidazole-HCl (pH 6.0), 10 mM MgCl2, 50 mM KCl, and 1 mM ATP] at 30° C. for 10 min in the presence of various amounts of A-62176. Reactions were terminated by adding SDS to 1%, and topo II was removed by proteinase K digestion (100 μg/ml) at 42° C. for 1 hr followed by phenol/chloroform extraction and ethanol precipitation.

In the case of `N[C@H]1CCN(c2c(F)cc3c(=O)c(C(=O)O)cn4c3c2Oc2ccccc2-4)C1` [Compound A-62176, 1-(3-aminopyrrolidin-1-yl)-2-fluoro-4-oxo-4H-quino[2,3,4-i,j][1,4]benzoxazine-5-carboxylic acid, reference compound], the IC50 [1] is reported as 0.51 µM, the IC50 [2] is reported as 0.09 ± 0.003 µM and the “topo II-mediated cleavage” value [3] is reported as “enhance”.
